Assay results: DBAASP
In brackets after ≈: the same amount, converted by molar mass. Blank lines part the entries; values can stand above or below the compound they belong to.

Tests used:
Experiment in all cases: ≥ marks a high value that may be exact or a test limit, other limits are often not marked, values filed in µg/mL are converted to µM
[1] = system: Enterobacter cloacae ATCC 13047
[2] = system: Pseudomonas aeruginosa ATCC 27853
Pseudomonas aeruginosa = system: Pseudomonas aeruginosa
[3] = system: Staphylococcus aureus ATCC 25923
[4] = system: Enterococcus faecalis ATCC 29212
[5] = system: Klebsiella pneumoniae ATCC 700603
[6] = system: Pseudomonas aeruginosa CMCCB 1010
Klebsiella pneumoniae = system: Klebsiella pneumoniae
Shigella dysenteriae = system: Shigella dysenteriae
Staphylococcus aureus 10 = system: Staphylococcus aureus 10
[7] = system: Candida albicans ATCC 2002
Escherichia coli 37 = system: Escherichia coli 37
[8] = system: Escherichia coli ATCC 25922
[9] = system: Shigella flexneri ATCC 203
Escherichia coli D21 = system: Escherichia coli D21
[10] = system: Staphylococcus aureus JC-1
[11] = system: Proteus vulgaris OX19 ATCC 6380
[12] = system: Pseudomonas aeruginosa OT97
[13] = system: Staphylococcus aureus Cowan 1
[14] = system: Bacillus subtilis ATCC 6633
Bacillus megaterium Bm11 = system: Bacillus megaterium Bm11
[15] = system: Bacillus subtilis ATCC 9372
[16] = system: Pseudomonas aeruginosa ATCC 9027
[17] = system: Staphylococcus aureus ATCC 6538
[18] = system: Proteus vulgaris NCTC 4635
[19] = system: Escherichia coli ATCC 8739
[20] = system: Enterobacter cloacae AB2010162
[21] = system: Klebsiella oxytoca AB2010143
[22] = system: Bacillus magaterium AB90008
[23] = system: Staphylococcus aureus AB94004
[24] = system: Escherichia coli DH5alpha
[25] = system: Staphylococcus aureus 16472
Enterococcus sp. S13 = system: Enterococcus sp. S13
[26] = system: Candida tropicalis AY91009
[27] = system: Salmonella enterica AB2010185
Pseudomonas putida = system: Pseudomonas putida
[28] = system: Micrococcus luteus AB2010179
[29] = system: Legionella pneumophila ATCC 33216
[30] = system: Legionella longbeachae ATCC 33484
[31] = system: Legionella pneumophila ATCC 33215
[32] = system: Legionella pneumophila ATCC 33155
[33] = system: Legionella bozemanae ATCC 33217
Bacillus megaterium F04 = system: Bacillus megaterium F04
[34] = system: Legionella pneumophila Paris
[35] = system: Legionella oakridgensis ATCC 33761
[36] = system: Legionella micdadei ATCC 33218
[37] = system: Legionella pneumophila Lens
[38] = system: Legionella feeleii ATCC 35072
[39] = system: Legionella pneumophila Corby

MIC [1]: ≥ 40 µM
MIC [2]: 23 µM (≈ 59.7 µg/mL)
MIC (Pseudomonas aeruginosa): 23 µM (≈ 59.7 µg/mL)
MIC [3]: 17 µM (≈ 44.1 µg/mL)
MIC [4]: 60 µM (≈ 156 µg/mL)
MIC [5]: 15 µM (≈ 38.9 µg/mL)
MIC [6]: 17 µM (≈ 44.1 µg/mL)
MIC (Klebsiella pneumoniae): 30 µM (≈ 77.8 µg/mL)
MIC (Shigella dysenteriae): ≥ 40 µM
MIC (Staphylococcus aureus 10): ≥ 40 µM
MIC [7]: ≥ 60 µM
MIC (Escherichia coli 37): ≥ 60 µM
MIC [8]: 10 µM (≈ 25.9 µg/mL)
Structure (SMILES): CC[C@H](C)[C@H](NC(=O)[C@H](CC(C)C)NC(=O)[C@H](CC(C)C)NC(=O)[C@H](CCCCN)NC(=O)[C@H](C)NC(=O)[C@H](CC(C)C)NC(=O)[C@H](CCCCN)NC(=O)[C@@H](NC(=O)[C@H](C)NC(=O)CNC(=O)[C@H](CCSC)NC(=O)[C@H](CO)NC(=O)[C@@H](N)CC(=O)O)C(C)C)C(=O)N[C@@H](CC(=O)O)C(=O)N[C@@H](CCCCN)C(=O)N[C@@H](CCSC)C(=O)N[C@@H](CCCCN)C(=O)N[C@H]1CSSC[C@@H](C(=O)O)NC(=O)[C@H](C)NC(=O)[C@H](CCCCN)NC(=O)[C@H]([C@@H](C)O)NC(=O)[C@H](C(C)C)NC(=O)[C@H](CCC(=O)O)NC1=O [DSMGAVKLAKLLIDKMKCEVTKAC]

MIC [9]: ≥ 6000 µM
MIC (Escherichia coli D21): ≥ 3200 µM
MIC [10]: ≥ 1600 µM
MIC [11]: ≥ 6000 µM
MIC [12]: ≥ 6000 µM
MIC [13]: ≥ 6000 µM
MIC [14]: ≥ 3200 µM
MIC (Bacillus megaterium Bm11): ≥ 800 µM
Structure (SMILES): CC[C@H](C)[C@H](NC(=O)[C@H](CCCCN)NC(=O)[C@@H](NC(=O)[C@@H](NC(=O)[C@H](CCC(N)=O)NC(=O)CNC(=O)[C@H](Cc1cnc[nH]1)NC(=O)[C@H](CCC(N)=O)NC(=O)[C@@H](N)CC(N)=O)C(C)C)C(C)C)C(=O)N[C@@H](Cc1ccccc1)C(=O)N[C@@H](Cc1cnc[nH]1)C(=O)N[C@@H](Cc1cnc[nH]1)C(=O)O [NQHGQVVKIFHH]

MIC [15]: ≥ 52 µM
MIC [16]: 208 µM (≈ 256 µg/mL)
MIC [17]: 208 µM (≈ 256 µg/mL)
MIC [18]: ≥ 416 µM
MIC [19]: ≥ 104 µM
Structure (SMILES): CC[C@H](C)[C@H](NC(=O)[C@@H](NC(=O)[C@H](C)NC(=O)[C@H](Cc1ccccc1)NC(=O)[C@H](CC(C)C)NC(=O)CN)C(C)C)C(=O)N[C@@H](CCCCN)C(=O)N[C@@H](CCCCN)C(=O)N[C@H](C(=O)N[C@@H](C)C(=O)N[C@@H](CO)C(=O)N[C@H](C(=O)O)C(C)C)C(C)C [GLFAVIKKVASV]

MIC [20]: ≥ 76 µM
MIC [21]: ≥ 87 µM
MIC [22]: ≥ 32 µM
MIC [23]: 8 µM (≈ 12.4 µg/mL)
MIC [24]: ≥ 62 µM
MIC [25]: 14 µM (≈ 21.7 µg/mL)
MIC (Enterococcus sp. S13): 28 µM (≈ 43.3 µg/mL)
MIC [26]: 16 µM (≈ 24.8 µg/mL)
MIC [27]: ≥ 72 µM
MIC (Pseudomonas putida): ≥ 87 µM
MIC [28]: ≥ 32 µM
Structure (SMILES): CC[C@H](C)[C@H](NC(=O)CN)C(=O)N[C@@H](CC(C)C)C(=O)NCC(=O)N[C@@H](CCCCN)C(=O)N[C@@H](CC(C)C)C(=O)N[C@@H](Cc1c[nH]c2ccccc12)C(=O)N[C@@H](CCC(=O)O)C(=O)NCC(=O)N[C@@H](Cc1ccccc1)C(=O)N[C@@H](CCCCN)C(=O)N[C@@H](CO)C(=O)N[C@H](C(=O)N[C@H](C(=O)O)C(C)C)[C@@H](C)CC [GILGKLWEGFKSIV]

MIC [29]: 19.5 µM (≈ 50 µg/mL)
MIC [30]: 19.5 µM (≈ 50 µg/mL)
MIC [31]: 19.5 µM (≈ 50 µg/mL)
MIC [32]: 19.5 µM (≈ 50 µg/mL)
MIC [33]: 19.5 µM (≈ 50 µg/mL)
MIC (Bacillus megaterium F04): 4.69 µM (≈ 12 µg/mL)
MIC [34]: 19.5 µM (≈ 50 µg/mL)
MIC [35]: 19.5 µM (≈ 50 µg/mL)
MIC [36]: 19.5 µM (≈ 50 µg/mL)
MIC [37]: 1.17 µM (≈ 3 µg/mL)
MIC [38]: 19.5 µM (≈ 50 µg/mL)
MIC [39]: 19.5 µM (≈ 50 µg/mL)
Structure (SMILES): CC[C@H](C)[C@H](NC(=O)[C@H](CC(C)C)NC(=O)[C@H](CC(=O)O)NC(=O)[C@@H](NC(=O)[C@@H](NC(=O)[C@H](Cc1ccccc1)NC(=O)[C@H](CCC(N)=O)NC(=O)[C@@H](N)CCSC)[C@@H](C)CC)[C@@H](C)O)C(=O)N[C@@H](CCCCN)C(=O)N[C@@H](CCCCN)C(=O)N[C@@H](C)C(=O)N[C@H](C(=O)N[C@@H](CC(=O)O)C(=O)N[C@@H](Cc1ccccc1)C(=O)N[C@@H](Cc1ccccc1)C(=O)N[C@@H](CCCCN)C(=O)NCC(=O)N[C@@H](CC(C)C)C(=O)N[C@@H](Cc1ccccc1)C(=O)NCC(=O)N[C@@H](CC(N)=O)C(=O)N[C@@H](CCCCN)C(=O)O)C(C)C [MQFITDLIKKAVDFFKGLFGNK]
